Test results from patent US10604554B2, “Double-acylated GLP-1 derivatives” (Novo Nordisk A/S, priority 2012, dated 2020).

Each compound was assayed against T1, human GLP-1 receptor (Homo sapiens, UniProt P43220) (assay: In vitro potency (AlphaScreen cAMP, membranes)).
T1 construct: expressed in transfected cells; host or cells: BHK cells, clone FCW467-12A/KZ10-1 (parent line BHKTS13), further transfected with CRE luciferase
T1 sequence (P43220 24-463): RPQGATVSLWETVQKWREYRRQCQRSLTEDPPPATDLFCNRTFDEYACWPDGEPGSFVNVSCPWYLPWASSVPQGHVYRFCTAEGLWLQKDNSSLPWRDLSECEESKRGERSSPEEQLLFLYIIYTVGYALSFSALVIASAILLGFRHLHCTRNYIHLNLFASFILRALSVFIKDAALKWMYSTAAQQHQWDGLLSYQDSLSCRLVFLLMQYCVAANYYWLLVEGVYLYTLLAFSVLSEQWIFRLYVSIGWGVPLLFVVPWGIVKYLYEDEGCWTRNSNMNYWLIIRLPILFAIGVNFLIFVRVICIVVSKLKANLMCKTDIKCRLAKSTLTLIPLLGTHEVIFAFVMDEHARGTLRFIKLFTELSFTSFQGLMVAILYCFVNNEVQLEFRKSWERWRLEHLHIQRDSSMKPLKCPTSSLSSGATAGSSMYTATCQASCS
Type: biochemical
Method: The purpose of this example is to test the activity, or potency, of the GLP-1 derivatives in vitro.
Purified plasma membranes from a stable transfected cell line, BHK467-12A (tk-ts13), expressing the human GLP-1 receptor were stimulated with the GLP-1 analogue or derivative in question, and the potency of cAMP production was measured using the AlphaScreen™ cAMP Assay Kit from Perkin Elmer Life Sciences. The basic principle of the AlphaScreen Assay is a competition between endogenous cAMP and exogenously added biotin-cAMP. The capture of cAMP is achieved by using a specific antibody conjugated to acceptor beads.
A stable transfected cell line and a high expressing clone were selected for screening. The cells were grown at 5% CO2 in DMEM, 5% FCS, 1% Pen/Strep (Penicillin/Streptomycin) and 0.5 mg/ml of the selection marker G418.
Cells at approximately 80% confluence were washed 2× with PBS and harvested with Versene (aqueous solution of the tetrasodium salt of ethylenediaminetetraacetic acid), centrifuged 5 min at 1000 rpm and the supernatant removed. The additional steps were all performed on ice. The cell pellet was homogenised by the Ultrathurax for 20-30 s in 10 ml of Buffer 1 (20 mM Na-HEPES, 10 mM EDTA, pH=7.4), centrifuged 15 min at 20,000 rpm and the pellet resuspended in 10 ml of Buffer 2 (20 mM Na-HEPES, 0.1 mM EDTA, pH=7.4). The suspension was homogenised for 20-30 s and centrifuged 15 min at 20,000 rpm. Suspension in Buffer 2, homogenisation and centrifugation was repeated once and the membranes were resuspended in Buffer 2. The protein concentration was determined and the membranes stored at −80° C. until use.
The assay was performed in flat-bottom 96-well plates (Costar cat. no:3693). The final volume per well was 50 μl.
AlphaScreen cAMP Assay Kit from Perkin Elmer Life Sciences (cat. No: 6760625M); containing Anti-cAMP Acceptor beads (10 U/μl), Streptavidin Donor beads (10 U/μl) and Biotinylated-cAMP (133 U/μl).
AlphaScreen Buffer, pH=7.4: 50 mM TRIS-HCl (Sigma, cat.no: T3253); 5 mM HEPES (Sigma, cat.no: H3375); 10 mM MgCl2, 6H2O (Merck, cat.no: 5833); 150 mM NaCl (Sigma, cat.no: S9625); 0.01% Tween (Merck, cat.no: 822184). The following was added to the AlphaScreen Buffer prior to use (final concentrations indicated): BSA (Sigma, cat. no. A7906): 0.1%; IBMX (Sigma, cat. no. 15879): 0.5 mM; ATP (Sigma, cat. no. A7699): 1 mM; GTP (Sigma, cat. no. G8877): 1 uM.
cAMP standard (dilution factor in assay=5): cAMP Solution: 5 μL of a 5 mM cAMP-stock+495 μL AlphaScreen Buffer.
Membranes were prepared from hGLP-1/BHK 467-12A cells with a concentration of 6 μg/well corresponding to 0.6 mg/ml (the amount of membranes used pr. well may vary)
“No membranes”: Acceptor Beads (15 μg/ml final) in AlphaScreen buffer
“6 μg/well membranes”: membranes+Acceptor Beads (15 μg/ml final) in AlphaScreen buffer
An aliquot (10 μl) of “No membranes” was added to the cAMP standard (per well in duplicate wells) and the positive and negative controls
An aliquot (10 μl) of “6 μg/well membranes” was added to GLP-1 and analogues (per well in duplicate or triplicate wells)
Pos. Control: 10 μl “no membranes”+10 μl AlphaScreen Buffer
Neg. Control: 10 μl “no membranes”+10 μl cAMP Stock Solution (50 μM)
As the beads are sensitive to direct light, any handling was in the dark (as dark as possible), or in green light. All dilutions were made on ice.
1. Make the AlphaScreen Buffer.
2. Dissolve and dilute the GLP-1/Analogues/cAMP standard in AlphaScreen Buffer.
3. Make the Donor Beads Solution by mixing streptavidin donor beads (2 units/well) and biotinylated cAMP (1.2 units/well) and incubate 20-30 min in the dark at room temperature
4. Add the cAMP/GLP-1/Analogues to the plate: 10 μl per well.
5. Prepare membrane/Acceptor Beads solution and add this to the plates: 10 μl per well.
6. Add the Donor Beads: 30 μl per well.
7. Wrap the plate in aluminum foil and incubate on the shaker for 3 hours (very slowly) at RT.
Compound `CC[C@H](C)[C@H](NC(=O)[C@H](Cc1ccccc1)NC(=O)[C@H](CCC(=O)O)NC(=O)[C@H](CCCCNC(=O)[C@@H](N)CCCCNC(=O)COCCOCCNC(=O)COCCOCCNC(=O)CC[C@H](NC(=O)CCCCCCCCCCCOc1ccc(C(=O)O)cc1)C(=O)O)NC(=O)[C@H](C)NC(=O)[C@H](C)NC(=O)[C@H](CCC(N)=O)NC(=O)CNC(=O)[C@H](CCC(=O)O)NC(=O)[C@H](CC(C)C)NC(=O)[C@H](Cc1ccc(O)cc1)NC(=O)[C@H](CO)NC(=O)[C@H](CO)NC(=O)[C@@H](NC(=O)[C@H](CC(=O)O)NC(=O)[C@H](CO)NC(=O)[C@@H](NC(=O)[C@H](Cc1ccccc1)NC(=O)[C@@H](NC(=O)CNC(=O)[C@H](CCC(=O)O)NC(=O)C(C)(C)NC(=O)[C@@H](N)Cc1c[nH]cn1)[C@@H](C)O)[C@@H](C)O)C(C)C)C(=O)N[C@@H](C)C(=O)N[C@@H](Cc1c[nH]c2ccccc12)C(=O)N[C@@H](CC(C)C)C(=O)N[C@H](C(=O)N[C@@H](CCCNC(=N)N)C(=O)NCC(=O)N[C@@H](CCCNC(=N)N)C(=O)N[C@@H](CCCCNC(=O)[C@@H](N)CCCCNC(=O)COCCOCCNC(=O)COCCOCCNC(=O)CC[C@H](NC(=O)CCCCCCCCCCCOc1ccc(C(=O)O)cc1)C(=O)O)C(=O)O)C(C)C` [Example 14, N^ε26-[(2S)-2-amino-6-[[2-[2-[2-[[2-[2-[2-[[(4S)-4-carboxy-4-[12-(4-carboxyphenoxy)dodecanoylamino]butanoyl]amino]ethoxy]ethoxy]acetyl]amino]ethoxy]ethoxy]acetyl]amino]hexanoyl], N^ε37-[(2S)-2-amino-6-[[2-[2-[2-[[2-[2-[2-[[(4S)-4-carboxy-4-[12-(4-carboxyphenoxy)dodecanoylamino]butanoyl]amino]ethoxy]ethoxy]acetyl]amino]ethoxy]ethoxy]acetyl]amino]hexanoyl]-[Aib^8,Arg^34, Lys^37]-GLP-1-(7-37)-peptide] has an EC50 of 0.28 nM.
In the case of `CC[C@H](C)[C@H](NC(=O)[C@H](Cc1ccccc1)NC(=O)[C@H](CCC(=O)O)NC(=O)[C@H](CCCCNC(=O)[C@@H](N)CCCCNC(=O)CC[C@H](NC(=O)CC[C@H](NC(=O)CC[C@H](NC(=O)CCCCCCCCCCCOc1ccc(C(=O)O)cc1)C(=O)O)C(=O)O)C(=O)O)NC(=O)[C@H](C)NC(=O)[C@H](C)NC(=O)[C@H](CCC(N)=O)NC(=O)CNC(=O)[C@H](CCC(=O)O)NC(=O)[C@H](CC(C)C)NC(=O)[C@H](Cc1ccc(O)cc1)NC(=O)[C@H](CO)NC(=O)[C@H](CO)NC(=O)[C@@H](NC(=O)[C@H](CC(=O)O)NC(=O)[C@H](CO)NC(=O)[C@@H](NC(=O)[C@H](Cc1ccccc1)NC(=O)[C@@H](NC(=O)CNC(=O)[C@H](CCC(=O)O)NC(=O)C(C)(C)NC(=O)[C@@H](N)Cc1c[nH]cn1)[C@@H](C)O)[C@@H](C)O)C(C)C)C(=O)N[C@@H](C)C(=O)N[C@@H](Cc1c[nH]c2ccccc12)C(=O)N[C@@H](CC(C)C)C(=O)N[C@H](C(=O)N[C@@H](CCCNC(=N)N)C(=O)NCC(=O)N[C@@H](CCCNC(=N)N)C(=O)N[C@@H](CCCCNC(=O)[C@@H](N)CCCCNC(=O)CC[C@H](NC(=O)CC[C@H](NC(=O)CC[C@H](NC(=O)CCCCCCCCCCCOc1ccc(C(=O)O)cc1)C(=O)O)C(=O)O)C(=O)O)C(=O)O)C(C)C` [Example 17, N^ε26-[(2S)-2-amino-6-[[(4S)-4-carboxy-4-[[(4S)-4-carboxy-4-[[(4S)-4-carboxy-4-[12-(4-carboxyphenoxy)dodecanoylamino]butanoyl]amino]butanoyl]amino]butanoyl]amino]hexanoyl], N^ε37-[(2S)-2-amino-6-[[(4S)-4-carboxy-4-[[(4S)-4-carboxy-4-[[(4S)-4-carboxy-4-[12-(4-carboxyphenoxy)dodecanoylamino]butanoyl]amino]butanoyl]amino]butanoyl]amino]hexanoyl]-[Aib^8,Arg^34,Lys^37]-GLP-1-(7-37)-peptide], the EC50 is reported as 0.286 nM.
With `CC[C@H](C)[C@H](NC(=O)[C@H](Cc1ccccc1)NC(=O)[C@H](CCC(=O)O)NC(=O)[C@H](CCCCNC(=O)[C@@H](N)CCCCNC(=O)COCCOCCNC(=O)CC[C@H](NC(=O)CC[C@H](NC(=O)CCCCCCCCCCCOc1ccc(C(=O)O)cc1)C(=O)O)C(=O)O)NC(=O)[C@H](C)NC(=O)[C@H](C)NC(=O)[C@H](CCC(N)=O)NC(=O)CNC(=O)[C@H](CCC(=O)O)NC(=O)[C@H](CC(C)C)NC(=O)[C@H](Cc1ccc(O)cc1)NC(=O)[C@H](CO)NC(=O)[C@H](CO)NC(=O)[C@@H](NC(=O)[C@H](CC(=O)O)NC(=O)[C@H](CO)NC(=O)[C@@H](NC(=O)[C@H](Cc1ccccc1)NC(=O)[C@@H](NC(=O)CNC(=O)[C@H](CCC(=O)O)NC(=O)C(C)(C)NC(=O)[C@@H](N)Cc1c[nH]cn1)[C@@H](C)O)[C@@H](C)O)C(C)C)C(=O)N[C@@H](C)C(=O)N[C@@H](Cc1c[nH]c2ccccc12)C(=O)N[C@@H](CC(C)C)C(=O)N[C@H](C(=O)N[C@@H](CCCNC(=N)N)C(=O)NCC(=O)N[C@@H](CCCNC(=N)N)C(=O)N[C@@H](CCCCNC(=O)[C@@H](N)CCCCNC(=O)COCCOCCNC(=O)CC[C@H](NC(=O)CC[C@H](NC(=O)CCCCCCCCCCCOc1ccc(C(=O)O)cc1)C(=O)O)C(=O)O)C(=O)O)C(C)C` [Example 15, N^ε26-[(2S)-2-amino-6-[[2-[2-[2-[[(4S)-4-carboxy-4-[[(4S)-4-carboxy-4-[12-(4-carboxyphenoxy)dodecanoylamino]butanoyl]amino]butanoyl]amino]ethoxy]ethoxy]acetyl]amino]hexanoyl], N^ε37-[(2S)-2-amino-6-[[2-[2-[2-[[(4S)-4-carboxy-4-[[(4S)-4-carboxy-4-[12-(4-carboxyphenoxy)dodecanoylamino]butanoyl]amino]butanoyl]amino]ethoxy]ethoxy]acetyl]amino]hexanoyl]-[Aib^8,Arg^34,Lys^37]-GLP-1-(7-37)-peptide] the EC50 was 0.155 nM.
`CC[C@H](C)[C@H](NC(=O)[C@H](Cc1ccccc1)NC(=O)[C@H](CCC(=O)O)NC(=O)[C@H](CCCCNC(=O)[C@@H](N)CCCCNC(=O)[C@@H](N)CCCCNC(=O)CC[C@H](NC(=O)CCCCCCCCCCOc1ccc(C(=O)O)cc1)C(=O)O)NC(=O)[C@H](C)NC(=O)[C@H](C)NC(=O)[C@H](CCC(N)=O)NC(=O)CNC(=O)[C@H](CCC(=O)O)NC(=O)[C@H](CC(C)C)NC(=O)[C@H](Cc1ccc(O)cc1)NC(=O)[C@H](CO)NC(=O)[C@H](CO)NC(=O)[C@@H](NC(=O)[C@H](CC(=O)O)NC(=O)[C@H](CO)NC(=O)[C@@H](NC(=O)[C@H](Cc1ccccc1)NC(=O)[C@@H](NC(=O)CNC(=O)[C@H](CCC(=O)O)NC(=O)C(C)(C)NC(=O)[C@@H](N)Cc1c[nH]cn1)[C@@H](C)O)[C@@H](C)O)C(C)C)C(=O)N[C@@H](C)C(=O)N[C@@H](Cc1c[nH]c2ccccc12)C(=O)N[C@@H](CC(C)C)C(=O)N[C@H](C(=O)N[C@@H](CCCNC(=N)N)C(=O)NCC(=O)N[C@@H](CCCNC(=N)N)C(=O)N[C@@H](CCCCNC(=O)[C@@H](N)CCCCNC(=O)[C@@H](N)CCCCNC(=O)CC[C@H](NC(=O)CCCCCCCCCCOc1ccc(C(=O)O)cc1)C(=O)O)C(=O)O)C(C)C` [Example 20, N^ε26-[(2S)-2-amino-6-[[(2S)-2-amino-6-[[(4S)-4-carboxy-4-[11-(4-carboxyphenoxy)undecanoylamino]butanoyl]amino]hexanoyl]amino]hexanoyl], N^ε37-[(2S)-2-amino-6-[[(2S)-2-amino-6-[[(4S)-4-carboxy-4-[11-(4-carboxyphenoxy)undecanoylamino]butanoyl]amino]hexanoyl]amino]hexanoyl]-[Aib^8,Arg^34,Lys^37]-GLP-1-(7-37)-peptide] gave an EC50 of 0.071 nM.
